One may read the Cmax as the highest concentration seen after dosing. A word on the Tmax: it is the time from dosing to the highest level.

A short description of data set [1]: Human pharmacokinetic parameters following a single Sovaprevir tablet dose. The class given is in vivo. The settings on record: single tablet dose 200 mg, mean. The procedure:
A single 200 mg dose of Sovaprevir was administered to human subjects.
The pharmacokinetic parameters shown in TABLE 4 were measured in humans following administration of a single Sovaprevir tablet dose.

Assay in data set [2]: as above
Format: in vivo. The settings on record: mean.

The mark [3] stands for this setting: single tablet dose 100 mg (Fasted).
Where [4] appears, read: single tablet dose 100 mg (Fed).

Each structure is given as a SMILES string.

For `C=C[C@@H]1C[C@]1(NC(=O)[C@@H]1C[C@@H](Oc2cc(-c3ccccc3)nc3cc(OC)ccc23)CN1C(=O)[C@@H](CC(=O)N1CCCCC1)C(C)(C)C)C(=O)NS(=O)(=O)C1CC1` [Sovaprevir], the “AUC(0-∞)” value turned out to be 500.0 ng·h/mL in data set [1]; 302 ng·h/mL in data set [2] (setting [3]); 228 ng·h/mL in data set [2] (setting [4]); 748.8 ng·h/mL in data set [2] (single tablet dose 250 mg); 1314 ng·h/mL in data set [2] (single tablet dose 300 mg). For the same molecule, the Cmax in data set [1] stood at 109 ng/mL; in data set [2] (setting [3]) it was 67.2 ng/mL; in data set [2] (setting [4]), 61.9 ng/mL; in data set [2] (single tablet dose 250 mg), 172 ng/mL; in data set [2] (single tablet dose 300 mg), 333 ng/mL. Besides, the Tmax in data set [1] is 2.61 h; in data set [2] (setting [3]), 1.58 h; in data set [2] (setting [4]), 4.20 h; in data set [2] (single tablet dose 250 mg) it was 3.40 h; in data set [2] (single tablet dose 300 mg), 3.39 h. Moreover, the “AUC(0-72)” value in data set [2] (setting [3]) turned out to be 288 ng·h/mL; in data set [2] (setting [4]) it was 220 ng·h/mL; in data set [2] (single tablet dose 200 mg), 489.9 ng·h/mL; in data set [2] (single tablet dose 250 mg) it was 735.6 ng·h/mL; in data set [2] (single tablet dose 300 mg), 1301 ng·h/mL.
